Data on 9 compounds can be found in ChEMBL document CHEMBL1201862, “PubChem BioAssay data set” (2004).

Activity calls are given as the source filed them.

Assay [1] is described as follows: Late stage assay provider results from the probe development effort to identify inhibitors of the Plasmodium falciparum M18 Aspartyl Aminopeptidase (M18AAP): radiolabel-based cell-based dose response assay to identify compounds that inhibit P. falciparum growth in RBCs, Set 2.. Type of assay: functional.
Assay [2] in a line: HEK293 Cytotoxicity Assay Measured in Cell-Based System Using Plate Reader - 7071-01_Inhibitor_Dose_CherryPick_Activity_Set2. Type of assay: functional.
The subject of the next assay is HEK293. Put plainly: HEK293T cell cytotoxicity, dose response, cytotoxicity control, ATP luminescence, cherry-pick samples (AID 687005).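 Note: cells exposed to compound for 48 hours.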 The conditions noted are these: Homo sapiens. Type of assay: functional, cell-based.
The target of assay [3] is NAD-dependent protein deacylase sirtuin-5, mitochondrial (Homo sapiens, UniProt Q9NXA8). Put plainly: SIRT5 deacylase inhibitors, dose response, biochemical, fluorescence imaging, cherry-pick, set 6 (AID 720597).
Assay [4] is described as follows: HeLa 2N DNA content increase, dose response, cell-based, IC50 (AID 1117349). The format is functional.
The nature of assay [5]: Dose-response inhibition of insulin secretion in a rat insulinoma line at 5 mM glucose (AID 1117331). The conditions noted are these: INS-1E. The format is functional, cell-based.
Assay [6] is described as follows: HeLa 4N DNA content increase, dose response, cell-based, IC50 (AID 1117351). The format is functional.
Assay [7] is described as follows: cells. The format is functional, cell-based. The conditions noted are these: INS-1E.
The nature of assay [8]: PAX2 cell-based inhibition, dose response, selectivity assay for PAX8 inhibitor project, plate reader, dry powder samples (AID 743048).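 Note: HEK293 cells carrying a WT1 promoter luciferase reporter driven by expressed Pax2; potency is for inhibition of Pax2 driven reporter signal.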 Type of assay: functional.
For another assay, the target named is Paired box protein Pax-8 (Homo sapiens, UniProt Q06710). Put plainly: inhibitors of PAX8-driven TPO luciferase reporter, dose response, RMG-I cells, cherry-pick (AID 687027).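 Note: luciferase reporter driven by Pax8 target thyroperoxidase promoter measured by SteadyGlo luminescence.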 Type of assay: functional, cell-based. Background: Reporter assays use an easily measured gene product as a stand-in for the process of interest.
A short description of assay [9]: cytotoxicity in COV434 cells, dose response, cytotoxicity control for PAX8 inhibitor project, cell-based, plate reader, dry powder, SA7 (AID 743145). The format is functional.
Assay [10] can be described thus: PAX5 activity inhibitors, dose response, selectivity assay for PAX8 inhibitor project, cell-based, plate reader, dry powder samples (AID 743047).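 Note: HEK293 cells carrying a Pax5 driven CD19 promoter luciferase reporter; potency of inhibitors that lower reporter luminescence.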 Type of assay: functional.
Assay [11] in a line: cytotoxicity in OVCAR8 ovarian cancer cells, dose response, PAX8 project, cell-based, plate reader, dry powder samples (AID 743197). The format is functional. The conditions noted are these: OVCAR-8.
The nature of assay [12]: cytotoxicity in COV362 ovarian cancer cells, dose response, cytotoxicity control for PAX8 inhibitor project, cell-based, plate reader, dry powder, SA12 (AID 743144). Type of assay: functional.
Assay [13] is described as follows: cytotoxicity dependent on PAX8, dose response, cell-based, plate reader, dry powder (AID 743049). Type of assay: functional.
Assay [14] can be described thus: IGROV1 ovarian cancer cell cytotoxicity, dose response, PAX8 inhibitor project, plate reader, dry powder samples (AID 743043). As to conditions: IGROV-1. The format is functional, cell-based.
Assay [15] addresses Sphingosine 1-phosphate receptor 2 (Homo sapiens, UniProt O95136). The assay is described as follows: Dose Response Cell Based Assay for Agonists of the S1P2 Receptor. [Related pubchem assays: 729, 736, 843 ]. The format is functional.
Assay [16] can be described thus: cells.
Assay [17] deals with T1, Ubiquitin-conjugating enzyme E2 N (Homo sapiens, UniProt P61088).
T1 sequence (P61088 whole entry): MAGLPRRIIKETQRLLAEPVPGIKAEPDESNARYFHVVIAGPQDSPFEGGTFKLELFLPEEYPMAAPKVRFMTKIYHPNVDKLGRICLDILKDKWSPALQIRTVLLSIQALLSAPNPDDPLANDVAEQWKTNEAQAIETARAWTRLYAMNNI
The format is functional.

Assay [18] addresses T2, DNA repair protein RAD52 homolog (Homo sapiens, UniProt P43351).
T2 sequence (P43351 whole entry): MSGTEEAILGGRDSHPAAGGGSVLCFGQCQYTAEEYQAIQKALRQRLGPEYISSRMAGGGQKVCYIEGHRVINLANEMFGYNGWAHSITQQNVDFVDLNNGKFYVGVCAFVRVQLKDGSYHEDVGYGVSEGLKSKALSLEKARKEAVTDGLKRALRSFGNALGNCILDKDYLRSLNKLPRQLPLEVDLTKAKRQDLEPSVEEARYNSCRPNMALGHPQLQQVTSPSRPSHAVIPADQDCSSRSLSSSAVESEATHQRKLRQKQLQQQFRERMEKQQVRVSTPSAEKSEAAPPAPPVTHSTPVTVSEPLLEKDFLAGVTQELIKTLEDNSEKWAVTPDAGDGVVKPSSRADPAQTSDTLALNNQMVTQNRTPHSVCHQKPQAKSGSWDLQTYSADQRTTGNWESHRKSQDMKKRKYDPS
Type of assay: functional, biochemical.

Assay [19] can be described thus: half-maximal inhibitory concentration for glucagon-like peptide-1 release, STC-1 cell line, dose-response (AID 1117345). The format is functional, cell-based.
In a further assay the target is Melanocortin receptor 4 (Homo sapiens, UniProt P32245). The format is functional, cell-based.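 Note: Cell-based assay with luminescence read-out, confirmatory dose-response testing for agonist activity of biased ligands at MC4R; human U2OS cells with tagged receptor and beta-arrestin; potency of agonists that increase receptor coupling to beta-arrestin.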
Assay [20] has as its target T3, Apoptotic protease-activating factor 1 (Homo sapiens, UniProt O14727).
T3 sequence (O14727 whole entry): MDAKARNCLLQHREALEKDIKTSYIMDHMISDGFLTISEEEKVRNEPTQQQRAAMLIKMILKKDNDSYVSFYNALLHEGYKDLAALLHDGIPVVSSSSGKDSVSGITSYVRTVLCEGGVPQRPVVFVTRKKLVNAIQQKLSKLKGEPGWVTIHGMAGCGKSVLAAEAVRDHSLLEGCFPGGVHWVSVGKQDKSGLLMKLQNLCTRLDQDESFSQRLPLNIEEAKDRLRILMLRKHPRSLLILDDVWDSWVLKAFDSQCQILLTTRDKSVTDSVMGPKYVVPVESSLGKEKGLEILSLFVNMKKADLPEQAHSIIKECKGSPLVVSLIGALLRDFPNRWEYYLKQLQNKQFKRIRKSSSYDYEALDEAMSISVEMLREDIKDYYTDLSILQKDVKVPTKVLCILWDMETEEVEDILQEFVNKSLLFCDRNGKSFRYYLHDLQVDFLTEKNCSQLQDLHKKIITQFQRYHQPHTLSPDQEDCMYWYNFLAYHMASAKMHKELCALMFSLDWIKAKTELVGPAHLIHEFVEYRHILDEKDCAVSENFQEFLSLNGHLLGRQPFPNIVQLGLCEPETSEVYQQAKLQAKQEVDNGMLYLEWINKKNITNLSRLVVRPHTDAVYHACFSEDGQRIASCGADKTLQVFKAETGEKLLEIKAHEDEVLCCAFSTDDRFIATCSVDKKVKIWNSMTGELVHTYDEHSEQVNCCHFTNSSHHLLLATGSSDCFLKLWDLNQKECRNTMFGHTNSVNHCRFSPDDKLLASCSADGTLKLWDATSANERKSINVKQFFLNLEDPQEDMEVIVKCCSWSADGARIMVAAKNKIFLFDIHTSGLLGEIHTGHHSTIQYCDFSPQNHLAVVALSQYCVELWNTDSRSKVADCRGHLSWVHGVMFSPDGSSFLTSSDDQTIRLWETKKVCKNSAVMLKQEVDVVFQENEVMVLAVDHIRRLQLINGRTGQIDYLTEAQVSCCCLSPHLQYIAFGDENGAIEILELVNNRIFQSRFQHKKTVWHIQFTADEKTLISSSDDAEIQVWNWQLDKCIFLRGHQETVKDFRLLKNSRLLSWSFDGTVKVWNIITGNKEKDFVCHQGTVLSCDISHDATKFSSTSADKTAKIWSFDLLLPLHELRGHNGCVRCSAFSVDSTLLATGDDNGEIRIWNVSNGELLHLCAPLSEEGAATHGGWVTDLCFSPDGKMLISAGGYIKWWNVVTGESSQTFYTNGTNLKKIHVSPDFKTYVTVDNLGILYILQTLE
Type of assay: functional.

A short description of assay [21]: Glucagon-like peptide 1 release potency, NCI-H716 cell line, dose-response, half-maximal inhibitory concentration (AID 1117344). Type of assay: functional, cell-based.
The nature of assay [22]: A2780 ovarian cancer cell cytotoxicity, dose response, cytotoxicity control, plate reader, dry powder samples (AID 743046). The format is functional, cell-based.
A short description of assay [23]: NIH:OVCAR-3 ovarian cancer cell cytotoxicity, dose response, PAX8 inhibitor project, plate reader, dry powder samples (AID 743044). The format is functional, cell-based.

Paired box protein Pax-8, sequence (Q06710 whole entry): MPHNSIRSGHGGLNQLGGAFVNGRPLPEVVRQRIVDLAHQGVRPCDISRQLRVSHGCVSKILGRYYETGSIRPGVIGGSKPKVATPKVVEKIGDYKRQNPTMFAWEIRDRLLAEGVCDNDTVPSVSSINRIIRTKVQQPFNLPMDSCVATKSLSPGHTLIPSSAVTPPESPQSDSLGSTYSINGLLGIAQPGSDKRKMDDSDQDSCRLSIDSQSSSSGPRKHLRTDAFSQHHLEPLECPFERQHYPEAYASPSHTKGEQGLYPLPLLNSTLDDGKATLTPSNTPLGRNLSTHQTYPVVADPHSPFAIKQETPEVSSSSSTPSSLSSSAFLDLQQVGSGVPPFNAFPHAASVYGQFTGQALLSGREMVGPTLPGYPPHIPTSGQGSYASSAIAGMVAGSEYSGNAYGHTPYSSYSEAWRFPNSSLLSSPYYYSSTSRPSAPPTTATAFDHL
Melanocortin receptor 4, sequence (P32245 whole entry): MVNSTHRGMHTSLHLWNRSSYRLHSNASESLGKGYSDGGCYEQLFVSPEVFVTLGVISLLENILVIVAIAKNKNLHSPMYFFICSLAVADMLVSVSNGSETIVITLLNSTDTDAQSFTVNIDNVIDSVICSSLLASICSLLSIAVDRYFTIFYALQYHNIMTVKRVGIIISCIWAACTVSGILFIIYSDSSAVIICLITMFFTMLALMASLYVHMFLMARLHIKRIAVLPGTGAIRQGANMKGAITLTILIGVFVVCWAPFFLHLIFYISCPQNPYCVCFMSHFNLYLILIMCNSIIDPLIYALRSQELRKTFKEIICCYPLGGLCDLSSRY
NAD-dependent protein deacylase sirtuin-5, mitochondrial, sequence (Q9NXA8 whole entry): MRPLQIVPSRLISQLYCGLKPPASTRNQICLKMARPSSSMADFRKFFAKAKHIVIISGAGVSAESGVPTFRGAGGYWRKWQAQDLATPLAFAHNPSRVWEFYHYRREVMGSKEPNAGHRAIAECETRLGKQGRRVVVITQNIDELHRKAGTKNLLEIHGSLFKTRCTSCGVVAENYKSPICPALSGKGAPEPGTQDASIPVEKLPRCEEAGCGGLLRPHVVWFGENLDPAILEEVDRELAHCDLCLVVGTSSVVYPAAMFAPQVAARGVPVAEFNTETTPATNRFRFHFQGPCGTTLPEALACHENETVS
Sphingosine 1-phosphate receptor 2, sequence (O95136 whole entry): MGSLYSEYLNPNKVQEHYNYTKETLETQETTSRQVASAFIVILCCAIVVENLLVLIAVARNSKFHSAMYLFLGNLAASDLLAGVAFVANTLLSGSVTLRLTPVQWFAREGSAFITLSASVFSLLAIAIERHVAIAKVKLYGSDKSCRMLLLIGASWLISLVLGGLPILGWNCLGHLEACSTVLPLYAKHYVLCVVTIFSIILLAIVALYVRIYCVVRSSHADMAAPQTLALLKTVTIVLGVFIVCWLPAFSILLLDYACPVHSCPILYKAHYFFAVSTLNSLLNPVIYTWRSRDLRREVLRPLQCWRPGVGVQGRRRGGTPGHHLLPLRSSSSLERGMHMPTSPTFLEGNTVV

As for `Oc1ccc(CCNc2c3ccccc3nc3ccccc23)cc1`, in assay [1], the IC50 (in general, the point on the concentration scale where inhibition reaches its midpoint) was 0.7 µM (active).

Turning to `COC(=O)C1=C(C)N(Cc2ccc(Cl)cc2)C(=S)NC1c1cccc(F)c1` (configuration not stated), the concentration at half-maximal activity (AC50) (in assay [2]; with HEK293) was 21.4 µM (active) each time.

For the compound `CCC(=O)N1C[C@@H](C)[C@@H](OC)CN(C)C(=O)c2cc(NC(=O)CC(F)(F)F)ccc2OC[C@@H]1C`, the AC50 (commonly the concentration at which the activity in the assay is half-maximal) in assay [3] was 4 µM (active).

As to `Nc1ccc2cc3ccc(N)cc3nc2c1` [PROFLAVINE HEMISULFATE], the IC50 is > 10 µM (inactive) in [4], 20.6 µM (inactive) in [5], > 10 µM (inactive) in assay [6] and > 33.3 µM (inactive) in “cells [7]”.

`N#C[C@@H]1[C@@H](c2ccc(C#Cc3ccccc3F)cc2)[C@H](CO)N1C(=O)C1CCCCC1`: the AC50 in assay [8] was 53.3 µM (active); at Paired box protein Pax-8, 9.74 µM (active); in [9], 25 µM (active); in assay [10], 25.8 µM (active); in [11] it was 37.5 µM (active); in assay [12], 32.4 µM (active). Further, the figures for the AC50 in assay [13] and in [14] were 28.6 µM (active) and 33.4 µM (active), respectively.

Regarding `Cc1ccc(CNC(=O)CCNC(=O)c2ccco2)cc1`, in [15], the EC50 (in general, the concentration at which the effect is half-maximal) is > 50 µM (not active).

Turning to `CCN(CC)c1ccc2cc(C(N)=O)c(=O)oc2c1`, the half-maximal activity concentration (AC50) in the assay “cells [16]” is 0.573 µM (active).

In the case of `CC(C)(C)CC(C)(C)c1ccc(OCCOCC[N+](C)(C)Cc2ccccc2)cc1` [BENZETHONIUM CHLORIDE], the IC50 is > 20 µM (inactive) in assay [17], 13.8 µM (inactive) in assay [19], 23.5 µM (active) in assay [20] and 21.9 µM (inactive) in assay [21]. Besides, the AC50 in assay [18] was 31.3 µM (active). The EC50 on Melanocortin receptor 4 is > 89.2 µM (inactive).

Turning to `CC(C)(C)[S+]([O-])N1Cc2cc(C(=O)NCCCN3CCOCC3)nc(-c3cccc(C#CCC4CCCC4)c3)c2[C@@H]1CCO` (some centres not stated), the half-maximal activity concentration (AC50) in assay [22] was 4.02 µM (active); at Paired box protein Pax-8, 24 µM (active); in assay [23], 40.4 µM (active).
